Columns and labels:
prostate cancer cells = conditions: background statement; cited from earlier work
FABP3 = FABP3 (Homo sapiens, UniProt P05413); test: FABP3 inhibition rate, ANS substrate competition method (illustrated by the FABP4 system); format: binding; conditions: compound 25 μM
Excerpt: (§1) Considering that inhibition of FABP3 would cause myocardial function damage and bring potential safety issues, we tested the inhibitory activity of some compounds on FABP3. The activity test is illustrated by the example of the FABP4 activity test system as below.
(§2) Experimental principle and method: Once the free non-covalent fluorescent probe ANS binds to FABP4, the ANS fluorescence intensity will increase and its spectrum will be blue shifted. In this experiment, the inhibitory effect of the compound on FABP4 was evaluated by measuring the change in the ANS fluorescence signal value. For the FABP4 inhibitory activity test, the ANS substrate competition method was used, and we used the method of Kane and Bernlohr (E. Marr, M. Tardie, M. Carty, T. Brown Phillips, I. K. Wang, W. Soeller, X. Qiu, G. Karam, Expression, purification, crystallization and structure of human adipocyte lipid-binding protein (aP2). Acta Crystallogr., Sect. F: Struct. Biol. Cryst. Commun. 62 (2006) 1058-1060.). Human FABP4 with a His tag was expressed in the BL21 (DE3) strain and then purified using a Ni column with a His tag to generate the protein. In the detection system, the concentration of 1,8-ANS substrate was 10 μM, the final concentration of FABP4 was 10 μM, and then the compound prepared by the present invention was added at the required concentration for incubation for 3 minutes, and finally the fluorescence signal was detected at an excitation wavelength (EX) of 370 nm/emission wavelength (EM) of 470 nm. The inhibition rate (%) of the test sample on FABP4 was calculated according to the fluorescence absorption value of the system. The inhibition rate (%) was calculated according to the following equation: […]
(§3) FX represents the fluorescence value (fluorescence, F) of the system measured in the presence of compound x;
(§4) Fbackground represents the fluorescence value of the fluorescent substrate ANS;
(§5) F0% represents the fluorescence value of the system when the inhibition rate is 0%, that is, when no compound was added.

FABP5 = FABP5 (Homo sapiens, UniProt Q01469); test: FABP5 inhibition rate, ANS substrate competition method (illustrated by the FABP4 system); format: binding; conditions: compound 25 μM
3T3-L1 cells = test: Lipolysis inhibition in differentiated mature 3T3-L1 adipocytes (supernatant glycerol, forskolin stimulation); format: cell-based; conditions: 80 μM compound, 24 h incubation, 20 μM forskolin 2 h; FIG. 1
Protocol: In this example, the lipolysis inhibitory activity of the compounds prepared in the present invention on differentiated mature 3T3-L1 preadipocytes was measured.
5 In adipocytes, FABP4 plays the role of a fatty acid chaperone, and gene knockout or drug inhibition of FABP4 can be used to inhibit lipolysis and promote lipid production in adipocytes. Therefore, the lipolysis experiment can be used as a confirmation indicator of the FABP4 inhibitory activity of the compound. In this experiment, the lipolysis activity of the compounds was evaluated by measuring the effect of the compounds prepared in the present 10 invention on the glycerol content of the supernatant of mature adipocytes.
Experimental materials: 3T3-L1 preadipocytes; calf serum, fetal bovine serum, high glucose H-DMEM culture medium, 3-isobutyl-1-methylxanthine (IBMX), dexamethasone, insulin, Forskolin, glycerol determination kit, BCA protein concentration determination kit.
1. 3T3-L1 preadipocytes were inoculated on culture plates and cultured in high-glucose DMEM containing 10% calf serum in a 37° C., 5% CO2 incubator;
2. After the cells were fully grown, contact inhibition was performed for two days;
3. […]
6. The cell supernatant was collected to measure the glycerol content, the intracellular protein concentration was measured by BCA method for calibration, and finally Graphpad Prism was used to analyze the results.

Human FABP4 = target: T1, Human FABP4 (Homo sapiens, UniProt P15090); test: FABP4 inhibition rate, ANS substrate competition (fluorescence) method; format: binding; conditions: compound 25 μM; 10 μM 1,8-ANS, 10 μM FABP4
T1 construct: His tag; made in house; host or cells: E. coli BL21 (DE3)
Excerpt: as §1, §2, §3, §4, §5

[1] = tested on: IL-6 secretion in THP-1 cells; test: IL-6 secretion in LPS-stimulated THP-1 monocyte-derived macrophages (ELISA); format: cell-based; conditions: FIG. 3
Excerpt: In FIG. 3, the vertical axis represents the amount (ng) of MCP-1 contained in each mg of cell protein. Wherein, Control (Con) represents blank control treatment, LPS represents lipopolysaccharide treatment, BMS309403 represents inhibitor positive control treatment, RO6806051 (RO) represents lead compound treatment, and Y2, Y3, Y15, Y16 and Y18 represent treatments with compounds Y2, Y3, Y15, Y16 and Y18 prepared in the present invention, respectively.
(§6) Effects of the compounds on monocyte chemoattractant factor-1 (MCP-1) and interleukin-6 (IL-6) in THP-1 monocyte-derived macrophage.
(§7) First, monocytic cell line THP-1 in logarithmic growth phase was plated on a 96-well plate at a cell density of 5*10^5/ml; then 100 nM phorbol myristate ester (PMA) was added to induce the cells for 24 hours to differentiate into macrophages; then the cells were washed once or twice with phosphate buffered saline (PBS), and different concentrations of compounds (5, 10, 25 μM) were added for incubation for 18 hours; finally, after 6 hours of stimulation with 100 ng/ml lipopolysaccharide (LPS), the supernatant was collected and diluted to a certain multiple and the contents of MCP-1 and IL-6 were detected using enzyme-linked immunosorbent assay (ELISA), and cell protein was collected and the protein concentration was measured by BCA method for calibration.

[2] = tested on: MCP-1 secretion in THP-1 cells; test: MCP-1 secretion in LPS-stimulated THP-1 monocyte-derived macrophages (ELISA); format: cell-based; conditions: FIG. 2; for secretion of inflammatory factor MCP-1 in THP-1 mononuclear macrophages: 25 μM, 10 μM and 5 μM, 18 h incubation, 100 ng/ml LPS 6 h; for MCP-1 reducing activity compared with BMS309403 and RO6806051: THP-1 macrophages, LPS
Excerpt: In FIG. 2A to FIG. 2C, the vertical axis represents the amount (ng) of MCP-1 contained in each mg of cell protein: in FIG. 2D, the vertical axis represents the relative concentration of MCP-1 (ng/mg cellular protein % LPS). Wherein, Control represents blank control treatment, LPS represents lipopolysaccharide treatment, BMS309403 represents inhibitor positive control treatment, RO6806051 (RO) represents lead compound treatment, and Y2, Y3, Y15, Y16 and Y18 represent treatments with compounds Y2, Y3, Y15, Y16 and Y18 prepared in the present invention, respectively.
as §6, §7

FABP3, sequence (P05413 whole entry): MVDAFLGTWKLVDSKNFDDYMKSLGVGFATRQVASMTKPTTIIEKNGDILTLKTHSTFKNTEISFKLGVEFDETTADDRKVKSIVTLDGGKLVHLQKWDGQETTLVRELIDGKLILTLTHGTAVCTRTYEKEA
T1 sequence (P15090 whole entry): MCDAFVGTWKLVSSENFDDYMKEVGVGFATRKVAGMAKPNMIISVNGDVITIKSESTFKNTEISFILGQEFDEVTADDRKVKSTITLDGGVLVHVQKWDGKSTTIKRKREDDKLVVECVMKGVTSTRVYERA
FABP5, sequence (Q01469 whole entry): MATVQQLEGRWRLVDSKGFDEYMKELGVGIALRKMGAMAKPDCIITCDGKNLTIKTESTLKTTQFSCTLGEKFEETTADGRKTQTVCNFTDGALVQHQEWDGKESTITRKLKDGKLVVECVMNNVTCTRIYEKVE

| Structure (SMILES) | effect on prostate cancer cell proliferation, metastasis and apoptosis (prostate cancer cells) | inhibition at 25 µM (FABP3) [%] | inhibition at 25 µM (FABP5) [%] | glycerol content of the supernatant under FSK (forskolin) stimulation (3T3-L1 cells) | inhibition at 25 µM (Human FABP4) [%] | IL-6 secretion, tendency (no concentration stated) [1] | secretion of inflammatory factor MCP-1 in THP-1 mononuclear macrophages [2] | MCP-1 reducing activity compared with BMS309403 and RO6806051 [2] | secretion of inflammatory factor IL-6 in THP-1 mononuclear macrophages ([1]; 25 μM) |
| --- | --- | --- | --- | --- | --- | --- | --- | --- | --- |
| CCc1c(-c2ccccc2)c(-c2ccccc2)nn1-c1ccccc1-c1cccc(OCC(=O)O)c1 [BMS309403] | inhibit cell proliferation and metastasis and promote cell apoptosis |  |  |  |  |  |  |  |  |
| O=C(O)c1c(-c2ccccc2)c2cc(Cl)ccc2c(=O)n1CC1CCCCC1 [Compound Y2, 6-Chloro-2-(cyclohexylmethyl)-1-oxo-4-phenyl-1,2-dihydroisoquinoline-3-carboxylic Acid] |  | 48 | 73 | significantly reduce the glycerol content | 93 | tendency to reduce IL-6 secretion but with no statistical difference | could reduce the secretion of inflammatory factor MCP-1 | better than those of the positive control FABP4 inhibitor BMS309403 and the lead compound RO6806051 |  |
| O=C(O)c1c(-c2ccccc2)c2cc(Cl)ccc2c(=O)n1C1CCCC1 [Compound Y3, 6-Chloro-2-cyclopentyl-1-oxo-4-phenyl-1,2-dihydroisoquinoline-3-carboxylic Acid] |  | 36 | 68 | significantly reduce the glycerol content | 93 | tendency to reduce IL-6 secretion but with no statistical difference | could reduce the secretion of inflammatory factor MCP-1 | better than those of the positive control FABP4 inhibitor BMS309403 and the lead compound RO6806051 |  |
| O=C(O)c1c(-c2ccc(F)c(Cl)c2)c2cc(Cl)ccc2c(=O)n1C1CCCC1 [Compound Y18, 6-Chloro-4-(3-chloro-4-fluorophenyl)-2-cyclopentyl-1-oxo-1,2-dihydroisoquinoline-3-carboxylic Acid] |  | 16 | 46 |  | 91 | tendency to reduce IL-6 secretion but with no statistical difference | could reduce the secretion of inflammatory factor MCP-1 |  | could reduce the secretion of inflammatory factor IL-6 |
